Target: PIK3CB;PIK3CG;PIK3CD;PIK3CA (human) (UniProt P48736)
Assay: Enzyme Assay

IC50 [nM]	SMILES
1520	O=C(c1nn(C2CCNCC2)c2c1CS(=O)(=O)c1ccccc1-2)N1CCOCC1
662	Cc1nc2ccc(-n3nc(C(=O)N4CCOCC4)c4c3-c3ccccc3S(=O)(=O)C4)cc2s1
601	CCn1nc(C(=O)N2CCOCC2)c2c1-c1ccccc1S(=O)(=O)C2
349	NCc1ccc(-n2nc(C(=O)N3CCOCC3)c3c2-c2ccccc2S(=O)(=O)C3)cc1
77	O=C(c1nn(C2CCN(C3CCOCC3)C2)c2c1CS(=O)(=O)c1ccccc1-2)N1CCOCC1 (stereo not given)
4020	O=C(c1nn(-c2ccccc2Cl)c2c1CS(=O)(=O)c1ccccc1-2)N1CCOCC1
1110	COCCNC(=O)c1cccc(-n2nc(C(=O)N3CCOCC3)c3c2-c2ccccc2S(=O)(=O)C3)c1
249	COC1CCN(Cc2ccc(-n3nc(C(=O)N4CCOCC4)c4c3-c3ccccc3S(=O)(=O)C4)cc2)CC1
300	Cc1noc(C)c1-c1cccc(-n2nc(C(=O)N3CCOCC3)c3c2-c2ccccc2S(=O)(=O)C3)c1
3410	O=C(c1ccc2c(c1)-c1c(c(C(=O)N3CCOCC3)nn1-c1ccccc1)CS2(=O)=O)N1CCCCC1
99	O=C(c1nn([C@@H]2CCCN(CCC3CCOCC3)C2)c2c1CS(=O)(=O)c1ncccc1-2)N1CCOCC1
236	O=C(c1nn(C2CN(CCN3CCOCC3)C2)c2c1CS(=O)(=O)c1ccccc1-2)N1CCOCC1
2470	CCC1c2c(C(=O)N3CCOCC3)nn(-c3ccccc3)c2-c2ccccc2S1(=O)=O (stereo not given)
2280	Cc1ccccc1-n1nc(C(=O)N2CCOCC2)c2c1-c1ccccc1S(=O)(=O)C2
21	COC1CCN(CCN2CCC[C@H](n3nc(C(=O)N4CCOCC4)c4c3-c3ccccc3S(=O)(=O)C4)C2)CC1
469	O=C(c1nn(C2CCCCCC2)c2c1CS(=O)(=O)c1ccccc1-2)N1CCOCC1
2040	O=C(c1nn([C@@H]2CCN(C3CCOCC3)C2)c2c1CS(=O)(=O)c1c(F)cccc1-2)N1CCOCC1
335	CN1CCN(Cc2ccc(-n3nc(C(=O)N4CCOCC4)c4c3-c3ccccc3S(=O)(=O)C4)cn2)CC1

IC50 [nM]	SMILES
438	COCCCN1CCCC(n2nc(C(=O)N3CCOCC3)c3c2-c2ccccc2S(=O)(=O)C3)CC1 (stereo not given)
192	O=C(c1nn(C2CCN(CCN3CC[C@H](F)C3)C2)c2c1CS(=O)(=O)c1ccccc1-2)N1CCOCC1 (stereo not given in full)
38	O=C(c1nn(C2CCCN(CCC3CCOCC3)C2)c2c1CS(=O)(=O)c1c(Cl)cccc1-2)N1CCOCC1 (stereo not given)
4520	NCCCC1c2c(C(=O)N3CCOCC3)nn(-c3ccccc3)c2-c2ccccc2S1(=O)=O (stereo not given)
7900	NC(=O)c1cccc2c1S(=O)(=O)Cc1c(C(=O)N3CCOCC3)nn(-c3ccccc3)c1-2
29	O=C(c1nn(C2CCN(C3CCOCC3)C2)c2c1CS(=O)(=O)c1c(F)cccc1-2)N1CCOCC1 (stereo not given)
31	COCCN1CCC[C@H](n2nc(C(=O)N3CCOCC3)c3c2-c2cccc(F)c2S(=O)(=O)C3)C1
641	CCCn1nc(C(=O)N2CCOCC2)c2c1-c1ccccc1S(=O)(=O)C2
133	O=C(c1nn([C@H]2CCCN(c3ccncc3)C2)c2c1CS(=O)(=O)c1ccccc1-2)N1CCOCC1
692	O=C(c1nn(C2CCN(CCC3CCOCC3)CC2)c2c1CS(=O)(=O)c1ccccc1-2)N1CCOCC1
687	Cn1nc(C(=O)N2CCOCC2)c2c1-c1cccc(F)c1S(=O)(=O)C2
2250	O=C(c1nn(-c2cccc(CO)c2)c2c1CS(=O)(=O)c1ccccc1-2)N1CCOCC1
193	O=C(c1nn(-c2cccc(-c3ccncc3)c2)c2c1CS(=O)(=O)c1ccccc1-2)N1CCOCC1
17	O=C(c1nn([C@H]2CCCN(CCN3CC(F)(F)C3)C2)c2c1CS(=O)(=O)c1ccccc1-2)N1CCOCC1
4720	CN(C)c1cccc(-n2nc(C(=O)N3CCOCC3)c3c2-c2ccccc2S(=O)(=O)C3)c1
169	O=C(c1nn(C2CCCN(CCn3cccn3)C2)c2c1CS(=O)(=O)c1ccccc1-2)N1CCOCC1 (stereo not given)
1130	Nc1ccc2c(c1)S(=O)(=O)Cc1c(C(=O)N3CCOCC3)nn(-c3ccccc3)c1-2

From the Kinase Knowledgebase extract (Sharma et al. 2016)
